Results from patent US20020156068A1, “Anti-psychosis combination” (priority 2001, published 2002).
Counter-ions that a name gives are not always drawn.

Tested on: MK-801-induced hyperactivity
Assay: Antagonism of MK801-induced hyperlocomotion (locomotor activity cages)
Assay type: in vivo, rat
Conditions: 180 min; for MK-801-induced hyperactivity as measured by a decrease in ambulation: male Sprague-Dawley rats, AR116081 10 or 20 mg/kg oral, each alone; for MK-801-induced hyperactivity as measured by a decrease in ambulation / effect of MK801 on fine movements, a measure of stereotypies / effect on rear measures (rearing activity): Haloperidol 0.05 mg/kg s.c., MK-801 0.3 mg/kg s.c.; for effect of MK801 on fine movements, a measure of stereotypies / effect on rear measures (rearing activity): AR116081 20 mg/kg oral, alone or combined
Protocol: Antagonism of MK801-Induced Hyperlocomotion: a Model of Potential Antipsychotic (“antipositive”) Activity
Because part of the symptomatology of schizophrenia may be related to altered glutamate transmission at the NMDA receptor, the reversal of MK-801-induced hyperlocomotor activity in rodents has been used routinely as an animal model for detecting potential antipsychotic activity (Hoffinan, D. C., J. Neural. Transm. 89:1-10, 1992).
Motor function was assessed using automated locomotor activity cages (Hamilton-Kinder, San Diego) comprised of standard rodent cages surrounded by photocell beams, allowing for automated recording of motor activity. The animals were under no motivational constraints and were free to move around the cages. In this test, male Sprague-Dawley rats (200-325 g body weight) were food deprived overnight prior to testing. On the testing day, they were administered AR116081 orally at a dose of 10 or 20 mg/kg base (substance # 127190 suspended in 1% Tween 80 and 99% distilled water solution, volume injection 10 cc/kg) immediately followed by subcutaneous administration of Haloperidol at a dose of 0.05 mg/kg base (RBI lot # TOW-1990 dissolved in distilled water and pH at 5-6, volume injection 1 cc/kg). The treated rats were placed in the locomotor activity cages 30 min after co-administration of compounds for a 30 min habituation period to the cages and recording of basal locomotor activity. Animals then received (via subcutaneous administration) (+)-MK801 hydrogen maleate at a dose of 0.3 mg/kg salt (RBI/Sigma Lot #108H4705 dissolved in saline, volume injection 1 cc/kg). The rats were immediately placed back into the locomotor activity cages, and activity was measured for 180 min.

| SMILES | MK-801-induced hyperactivity as measured by a decrease in ambulation | effect of MK801 on fine movements, a measure of stereotypies (rats) | effect on rear measures (rearing activity) (rats) | motor parameters recorded: ambulation, fine movement and rearing activity (rats, MK-801 0.3 mg/kg s.c. alone) |
| --- | --- | --- | --- | --- |
| Cn1ncc(Br)c1-c1cccc(NC(=O)Nc2ccc(Cl)cc2)c1 [AR116081, N-[3-(4-bromo-2-methylpyrazol-3-yl)phenyl][(4-chlorophenyl)amino]carboxamide] | attenuated | attenuated but did not significantly reverse | No effects | – |
| O=C(CCCN1CCC(O)(c2ccc(Cl)cc2)CC1)c1ccc(F)cc1 [Haloperidol] | attenuated | attenuated but did not significantly reverse | No effects | – |
| C[C@]12N[C@H](Cc3ccccc31)c1ccccc12 [MK-801, (+)-MK801 hydrogen maleate] | – | – | – | significant increase |
